Laboratory results as given in US20160264593A1 (priority 2013, published 2016).

Assay: in vivo
Details: rat, in vivo; for Tmax: Tmax of 100; for MRT: MRT of 100
Procedure: 100 was administrated via iv route at 0.5, 1.0 and 1.5 mg/kg into SD rats. The blood, liver and brain tissue samples were collected at predetermined times from rats.
Twelve (12) female SD rats per group were dosed by iv with 100. The rats were fasted overnight prior to dosing, with free access to water. Foods were withheld for 2 hours post-dose. Blood, liver and brain tissue samples in two animals each group were collected at each time point, within 10% of the scheduled time for each time point. Two extra animals were used for analytic method development. Blood (>0.3 mL) were collected via aorta abdominalis in anaesthetic animalsinto tubes containing heparin at 15 min, 1, 2, 6, 10 and 24 hours after iv administration. Liver and brain tissues were collected immediately after animal death. The liver and brain tissues were excised and rinsed with cold saline to avoid blood residual. Upon collection, each sample was placed on ice and the blood samples were subsequently centrifuged (4° C., 11000 rpm, 5 min) to separate plasma. The obtained plasma, liver and brain tissue samples were stored at −70° C. until LC-MS/MS analysis.
AUC0-∞ (AUC/NF) is the area under the plasma concentration-time curve with last concentration extrapolated based on the elimination rate constant.

[1] = female, Sprague-Dawley (SD), iv, 0.5 mg/kg, 100 brain concentration
[2] = female, Sprague-Dawley (SD), iv, 0.5 mg/kg, 100 liver concentration
[3] = female, Sprague-Dawley (SD), iv, 1 mg/kg, 100 liver concentration
[4] = female, Sprague-Dawley (SD), iv, 1.5 mg/kg, 100 brain concentration
[5] = female, Sprague-Dawley (SD), iv, 1.5 mg/kg, 100 liver concentration
[6] = female, Sprague-Dawley, iv, 0.5 mg/kg, 100 plasma concentration
[7] = female, Sprague-Dawley, iv, 1 mg/kg, 100 plasma concentration
[8] = female, Sprague-Dawley, iv, 1.5 mg/kg, 100 plasma concentration

For `CN1CCN(C(=O)C2C3CCC(O3)C2C(=O)O)CC1` (stereo not drawn) [Compound 100, 3-(4-methylpiperazine-1-carbonyl)-7-oxa-bicyclo[2,2,1]-heptane-2-carboxylic acid], the AUC(0-inf) (female, SD, iv, 0.5 mg/kg) was 706 ng·h/mL, the AUC(0-t) (female, SD, iv, 0.5 mg/kg) was 696 ng·h/mL and the “Tmax of 100” value (female, SD, iv, 0.5 mg/kg) was 0.25 h. The Cmax (female, SD, iv, 0.5 mg/kg, Cmax of 100) was 1110 ng/mL, the Tmax (female, SD, iv, 0.5 mg/kg) was 0.25 h and the AUC(0-inf) (female, SD, iv, 1 mg/kg) was 2830 ng·h/mL. For the same compound, the AUC(0-t) (female, SD, iv, 1 mg/kg) was 1920 ng·h/mL, the “Tmax of 100” value (female, SD, iv, 1 mg/kg) was 0.25 h and the Cmax (female, SD, iv, 1 mg/kg, Cmax of 100) was 2380 ng/mL. It also gave an MRT (female, SD, iv, 1 mg/kg) of 2.68 h, a Tmax (female, SD, iv, 1 mg/kg) of 0.25 h and an AUC(0-inf) (female, SD, iv, 1.5 mg/kg) of 8640 ng·h/mL. The AUC(0-t) (female, SD, iv, 1.5 mg/kg) was 7400 ng·h/mL, the Cmax (female, SD, iv, 1.5 mg/kg, Cmax of 100) was 3660 ng/mL and the MRT (female, SD, iv, 1.5 mg/kg) was 2.57 h. The half-life (female, SD, iv, 1.5 mg/kg, T½ of 100) was 1.93 h, the concentration at 0.25 h [1] was 15.3 ng/g and the concentration at 0.25 hr [1] was 17.4 ng/g. The concentration at 1 hr [1] was 6.31 ng/g, the concentration at 0.25 h [2] was 520 ng/g and the concentration at 2 h [2] was 109 ng/g. For the same compound, the concentration at 6 h [2] was 4.8 ng/g, the concentration at 2 h (female, Sprague-Dawley (SD), iv, 0.5 mg/kg, 100 plasma concentration) was 22.6 ng/mL and the concentration at 0.25 h [3] was 1300 ng/g. For the same compound, the concentration at 1 h [3] was 865 ng/g, the concentration at 0.25 h [4] was 46.9 ng/g and the concentration at 1 h [4] was 28.2 ng/g. It also gave a concentration at 2 h [4] of 27.2 ng/g, a concentration at 6 h [4] of 4.23 ng/g and a concentration at 0.25 h [5] of 1980 ng/g. The concentration at 1 h [5] was 2140 ng/g, the concentration at 2 h [5] was 2400 ng/g and the concentration at 6 h [5] was 407 ng/g. For the same compound, the concentration at 10 h [5] was 5.25 ng/g, the 100 liver concentration (female, Sprague-Dawley (SD), iv, 1.5 mg/kg, 6 h) was 536 ng/g and the concentration at 0.25 h [6] was 1000 ng/mL. It also gave a concentration at 1 h [6] of 192 ng/mL, a concentration at 2 h [6] of 25.8 ng/mL and a 100 plasma concentration (female, Sprague-Dawley, iv, 0.5 mg/kg, 2 h) of 19.4 ng/mL. The concentration at 0.25 h [7] was 2120 ng/mL, the concentration at 1 h [7] was 354 ng/mL and the concentration at 6 h [7] was 3.27 ng/mL. For the same compound, the AUC(0-t) (female, Sprague-Dawley, iv, 1.5 mg/kg) was 696 to 7400 ng·h/mL, the concentration at 0.25 h [8] was 3780 ng/mL and the concentration at 1 h [8] was 1760 ng/mL. For the same compound, the concentration at 2 h [8] was 1310 ng/mL, the concentration at 6 h [8] was 263 ng/mL and the half-life (female, Sprague-Dawley, iv, 1.5 mg/kg, T1/2 of 100 in brain) was 1.67 to 1.93 h. The half-life (female, Sprague-Dawley, iv, 1.5 mg/kg, T1/2 of 100 in liver) was 0.78 to 2.01 h, the half-life (female, Sprague-Dawley, iv, 1.5 mg/kg, T1/2 of 100 in plasma) was 0.31 to 2.2 h and the Cmax (female, Sprague-Dawley, iv, 1.5 mg/kg, mean Cmax of 100 in brain) was 17.4 to 43.5 ng/g. The Cmax (female, Sprague-Dawley, iv, 1.5 mg/kg, mean Cmax of 100 in liver) was 586 to 2550 ng/g, the “AUC of 100 versus dose level (statement)” value was “increased proportionally” and the “100 detectable in brain tissue samples” value (iv) was “detectable”. For the same compound, the “100 detectable in liver tissue samples” value (iv) was “detectable”, the “100 in brain tissue” value (iv) was “below limit of quantification” and the “100 in liver tissue” value (iv) was “below limit of quantification”. The “AUCINF of 100” value (iv, 0.5 mg/kg) was 902.2 ng·h/g, the “AUClast of 100 in brain” value (iv, 1.5 mg/kg) was 10.8˜125.5 ng·h/g and the “AUClast of 100 in liver” value (iv, 1.5 mg/kg) was 758.6˜9081.0 ng·h/g.
